Reference: a flash point compilation (Sun et al. 2020)

SMILES	flash point
CCCC(=O)Nc1ccccc1 [Ethyl acetanilide]	52.00 °C
CCOC(=O)CC(C)=O [Ethyl acetoacetate]	84.00 °C
CCCCCC(=O)CC [Ethyl amyl ketone]	57.00 °C
CCOC(=O)CCl [Ethyl chloroacetate]	66.00 °C
C/C=C/C(=O)OCC [Ethyl crotonate]	2.00 °C
CCOC(=O)CC [Ethyl propionate]	12.00 °C
OCCCl [Ethylene chlorohydrin]	60.00 °C
NC=O [Formamide]	155.00 °C
O=Cc1ccco1 [Furfural]	60.00 °C
OCC(O)CO [Glycerol]	160.00 °C
CC(=O)CC(C)C [Isobutyl methyl ketone]	17.00 °C
C=CC(=C)C [Isoprene]	-54.00 °C
C=CC(=O)OC [Methyl acrylate]	-3.00 °C
CCC(C)=O [Methyl ethyl ketone]	-7.00 °C
CC(=O)CC(C)C [Methyl isobutyl ketone]	23.00 °C
COC(=O)C(C)C [Methyl isobutyrate]	13.00 °C
C=C(C)C(=O)OC [Methyl methacrylate]	10.00 °C
CCCC(C)=O [Methyl-n-Propyl ketone]	7.00 °C
CN(C)c1ccccc1 [N,N-Dimethylaniline ]	63.00 °C
c1ccc2ccccc2c1 [Naphthalene]	79.00 °C
Oc1ccccc1 [Phenol]	79.00 °C
NCC(O)c1ccccc1 (centres undefined) [Phenylethanolamine]	152.00 °C
NNc1ccccc1 [Phenylhydrazine]	89.00 °C
CC(C)=CC(=O)C=C(C)C [Phorone]	85.00 °C
C=CC=CC [Piperylene]	-43.00 °C
CCCc1ccccc1 [Propyl benzene]	30.00 °C

SMILES	flash point
c1ccncc1 [Pyridine]	20.00 °C
Oc1cccc(O)c1 [Resorcinol]	127.00 °C
O=C(O)c1ccccc1O [Salicylic acid]	157.00 °C
NCCNCCNCCNCCN [Tetraethylenepentamine]	163.00 °C
c1ccc2c(c1)CCCC2 [Tetrahydronaphthalene]	71.00 °C
c1ccsc1 [Thiophene]	-1.00 °C
OCCN(CCO)CCO [Triethanolamine]	179.00 °C
CN(C)C [Trimethyl amine]	-7.00 °C
O=P(Oc1ccccc1)(Oc1ccccc1)Oc1ccccc1 [Triphenyl phosphate]	220.00 °C
c1ccc(P(c2ccccc2)c2ccccc2)cc1 [Triphenyl phosphine]	180.00 °C
C=CCl [Vinyl chloride]	-78.00 °C
Cc1cccc(N)c1C [Xylidine]	97.00 °C
CC(C)CCO[N+](=O)[O-] [iso-Amyl nitrate]	52.00 °C
CC(=O)OCC(C)C [iso-Butyl acetate]	18.00 °C
Cc1cccc([N+](=O)[O-])c1 [m-Nitrotoluene]	106.00 °C
c1ccc(-c2cccc(-c3ccccc3)c2)cc1 [m-Terphenyl]	135.00 °C
Cc1cccc(N)c1 [m-Toluidine]	86.00 °C
Cc1cccc(C)c1 [m-Xylene]	29.00 °C
CCCCCCCN [n-Heptylamine]	54.00 °C
CCCOC(C)=O [n-Propyl acetate]	14.00 °C
COc1ccccc1C=O [o-Anisaldehyde]	118.00 °C
Cc1ccccc1Br [o-Bromotoluene]	79.00 °C
Oc1ccccc1Cl [o-Chlorophenol]	64.00 °C
Nc1ccccc1[N+](=O)[O-] [o-Nitroaniline]	168.00 °C
Cc1ccccc1[N+](=O)[O-] [o-Nitrotoluene]	106.00 °C
c1ccc(-c2ccccc2-c2ccccc2)cc1 [o-Terphenyl]	163.00 °C

Remark: another data set of the same source

SMILES	flash point
C1=CCCC=CCC1 [1,5-cyclooctadiene]	32 °C
C#CCCCCCC#C [1,8-nonadiyne]	41 °C
C#CCCCCCCCC [1-decyne]	50 °C
C=CCCCCCCCCCC [1-dodecene]	77 °C
CC1=CCCCC1 [1-methylcyclohexene]	-3 °C
CC1=CCCC1 [1-methylcyclopentene]	-17 °C
CC(C)=CC=C(C)C [2,5-dimethyl-2,4-hexadiene]	29 °C
CC#CCCC [2-hexyne]	-11 °C
COCCOC(C)=O [2-methoxyethylacetate]	45 °C
CC(C)(C)S [2-methyl-2-propanethiol]	-26 °C
CC(CCO)CC(C)(C)C (centres undefined) [3,5,5-trimethyl-1-hexanol]	79 °C
ClC1CCCCC1 [chlorocyclohexane]	32 °C
C1CCCCCCCCC1 [cyclodecane]	65 °C
NCCNCCN [diethylenetriamine]	97 °C
CC1CCCC1 [methylcyclopentane]	-29 °C
C=C1CCCC1 [methylenecyclopentane]	-19 °C
CCCCCCCCCCCCC [tridecane]	102 °C
